In ChEMBL document CHEMBL1201862, “PubChem BioAssay data set” (2004):
Active and inactive are the calls of the source.

Columns and labels:
[1] = target: Polyadenylate-binding protein 1 (Homo sapiens, UniProt P11940); assay: PABP1 MLLE–PAM2 binding inhibitor potency, dose response, biochemical, fluorescence polarization, FITC-PAM2 peptide (AID 602259); format: functional; conditions: read-out: IC50_Mean
[2] = target: Tyrosine-protein phosphatase non-receptor type 11 (Homo sapiens, UniProt Q06124); assay: SHP2 phosphatase inhibition, dose response, selectivity assay for STEP inhibitor project, biochemical (AID 602367); format: functional; conditions: read-out: IC50_Mean
Tyrosine-protein phosphatase non-receptor type 11, sequence (Q06124 whole entry): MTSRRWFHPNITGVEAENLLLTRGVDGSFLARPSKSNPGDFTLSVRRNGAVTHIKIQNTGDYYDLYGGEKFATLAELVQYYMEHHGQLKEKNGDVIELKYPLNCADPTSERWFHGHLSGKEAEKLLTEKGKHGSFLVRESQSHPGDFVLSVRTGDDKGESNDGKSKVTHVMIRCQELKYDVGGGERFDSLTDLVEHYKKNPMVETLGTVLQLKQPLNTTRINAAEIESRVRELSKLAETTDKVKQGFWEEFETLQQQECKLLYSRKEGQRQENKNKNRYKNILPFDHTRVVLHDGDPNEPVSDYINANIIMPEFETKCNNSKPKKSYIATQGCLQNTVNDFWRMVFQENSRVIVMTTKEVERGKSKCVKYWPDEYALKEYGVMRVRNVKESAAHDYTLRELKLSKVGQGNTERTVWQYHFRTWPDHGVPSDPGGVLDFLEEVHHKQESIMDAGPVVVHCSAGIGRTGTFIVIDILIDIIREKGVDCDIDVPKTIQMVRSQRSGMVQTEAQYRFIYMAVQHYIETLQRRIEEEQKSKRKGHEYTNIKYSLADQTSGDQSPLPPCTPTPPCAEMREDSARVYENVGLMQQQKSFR

[3] = target: Small ubiquitin-related modifier 1 (Homo sapiens, UniProt P63165); assay: inhibitors of SUMO1 peptide binding, dose response, biochemical, fluorescence polarization, uHTS hits (AID 624382); format: functional; conditions: read-out: IC50_Mean
Small ubiquitin-related modifier 1, sequence (P63165 whole entry): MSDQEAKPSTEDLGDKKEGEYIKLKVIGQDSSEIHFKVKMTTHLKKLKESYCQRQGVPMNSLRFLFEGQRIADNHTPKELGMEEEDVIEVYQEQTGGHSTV

[4] = target: T1, Tyrosine-protein phosphatase non-receptor type 22 (Homo sapiens, UniProt Q9Y2R2); assay: PTPN22 phosphatase inhibition, dose response, selectivity assay for STEP inhibitor project, biochemical (AID 624241); format: functional
T1 sequence (Q9Y2R2 whole entry): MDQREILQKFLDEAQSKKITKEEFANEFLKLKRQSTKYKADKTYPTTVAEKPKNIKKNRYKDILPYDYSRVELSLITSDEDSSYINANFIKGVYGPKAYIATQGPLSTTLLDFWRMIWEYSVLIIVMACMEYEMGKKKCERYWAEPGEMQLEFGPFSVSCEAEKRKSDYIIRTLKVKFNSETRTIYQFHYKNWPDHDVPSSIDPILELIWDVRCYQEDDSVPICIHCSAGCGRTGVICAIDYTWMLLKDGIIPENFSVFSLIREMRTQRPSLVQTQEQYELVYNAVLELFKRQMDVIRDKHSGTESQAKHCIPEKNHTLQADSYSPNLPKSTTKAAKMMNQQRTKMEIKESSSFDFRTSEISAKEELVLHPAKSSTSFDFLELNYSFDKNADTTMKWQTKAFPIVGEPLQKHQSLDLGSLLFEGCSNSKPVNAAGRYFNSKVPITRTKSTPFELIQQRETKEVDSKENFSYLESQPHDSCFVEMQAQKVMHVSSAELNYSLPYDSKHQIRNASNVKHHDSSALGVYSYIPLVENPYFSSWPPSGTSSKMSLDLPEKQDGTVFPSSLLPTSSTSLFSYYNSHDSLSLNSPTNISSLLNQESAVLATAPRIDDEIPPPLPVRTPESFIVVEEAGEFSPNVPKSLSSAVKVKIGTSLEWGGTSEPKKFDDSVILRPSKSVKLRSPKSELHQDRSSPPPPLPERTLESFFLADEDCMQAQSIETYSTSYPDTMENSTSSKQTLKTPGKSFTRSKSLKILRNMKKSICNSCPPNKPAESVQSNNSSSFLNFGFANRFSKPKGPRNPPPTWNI

[5] = target: T2, Rac GTPase-activating protein 1 (Homo sapiens, UniProt Q9H0H5); assay: MgcRacGAP GTPase-activating activity inhibitors, confirmation, biochemical, ADP Hunter fluorescence, primary and confirmatory (AID 624330); format: functional
T2 sequence (Q9H0H5 whole entry): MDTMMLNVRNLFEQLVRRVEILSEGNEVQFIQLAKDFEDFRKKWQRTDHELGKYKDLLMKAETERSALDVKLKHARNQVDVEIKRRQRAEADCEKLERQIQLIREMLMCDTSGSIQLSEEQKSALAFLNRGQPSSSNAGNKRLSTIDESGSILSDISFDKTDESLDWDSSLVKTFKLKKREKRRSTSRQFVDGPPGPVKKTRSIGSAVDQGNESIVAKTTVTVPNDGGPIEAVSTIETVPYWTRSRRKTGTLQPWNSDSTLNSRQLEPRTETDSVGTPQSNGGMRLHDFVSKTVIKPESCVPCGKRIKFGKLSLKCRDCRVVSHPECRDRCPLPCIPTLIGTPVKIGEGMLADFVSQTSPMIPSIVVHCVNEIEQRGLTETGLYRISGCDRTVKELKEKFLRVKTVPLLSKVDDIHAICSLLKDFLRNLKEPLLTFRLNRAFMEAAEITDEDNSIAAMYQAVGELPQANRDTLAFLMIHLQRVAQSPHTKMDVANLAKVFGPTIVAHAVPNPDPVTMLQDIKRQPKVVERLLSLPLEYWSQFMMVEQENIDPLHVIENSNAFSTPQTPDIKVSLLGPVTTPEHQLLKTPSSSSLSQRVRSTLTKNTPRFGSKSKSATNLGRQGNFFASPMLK

Beta-galactosidase = Beta-galactosidase (Escherichia coli, UniProt Q8VNN2); format: functional
Beta-galactosidase, sequence (Q8VNN2 whole entry): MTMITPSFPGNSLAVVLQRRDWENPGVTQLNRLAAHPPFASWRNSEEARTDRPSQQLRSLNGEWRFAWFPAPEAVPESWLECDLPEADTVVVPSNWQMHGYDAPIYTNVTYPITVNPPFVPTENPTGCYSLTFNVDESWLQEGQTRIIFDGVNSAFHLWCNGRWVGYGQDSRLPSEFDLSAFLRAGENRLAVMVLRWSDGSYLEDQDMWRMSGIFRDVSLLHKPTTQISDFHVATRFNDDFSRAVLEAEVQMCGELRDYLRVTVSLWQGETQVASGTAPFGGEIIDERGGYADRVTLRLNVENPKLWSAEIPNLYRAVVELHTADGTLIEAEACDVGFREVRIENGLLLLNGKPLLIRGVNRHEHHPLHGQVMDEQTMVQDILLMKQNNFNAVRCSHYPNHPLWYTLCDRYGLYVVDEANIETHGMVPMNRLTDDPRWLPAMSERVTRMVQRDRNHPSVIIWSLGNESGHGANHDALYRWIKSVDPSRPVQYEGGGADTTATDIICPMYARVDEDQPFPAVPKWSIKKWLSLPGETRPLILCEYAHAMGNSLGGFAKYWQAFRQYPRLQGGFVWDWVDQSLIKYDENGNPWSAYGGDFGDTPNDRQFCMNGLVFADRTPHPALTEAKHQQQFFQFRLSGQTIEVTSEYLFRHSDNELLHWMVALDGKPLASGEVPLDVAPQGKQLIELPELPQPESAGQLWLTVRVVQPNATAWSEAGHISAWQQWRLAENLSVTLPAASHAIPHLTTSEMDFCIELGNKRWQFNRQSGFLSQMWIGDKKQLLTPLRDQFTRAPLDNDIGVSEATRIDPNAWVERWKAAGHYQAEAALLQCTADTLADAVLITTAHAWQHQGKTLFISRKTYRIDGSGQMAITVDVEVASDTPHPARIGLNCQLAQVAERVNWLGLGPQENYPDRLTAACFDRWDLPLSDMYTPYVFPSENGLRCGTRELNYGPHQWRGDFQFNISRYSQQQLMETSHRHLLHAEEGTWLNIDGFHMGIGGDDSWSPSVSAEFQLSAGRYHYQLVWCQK

Beta Lactamase = Beta Lactamase (Pseudomonas aeruginosa, UniProt Q932Y6); assay: beta-lactamase reporter inhibitor potency, dose response, artefact control for TLR9-MyD88 binding inhibitor project, BLA reporter cells, FRET fluorescence (AID 588341); format: cell-based;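 note: cell based assay in CHO-K1 cells stably expressing beta-lactamase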
Beta Lactamase, sequence (Q932Y6 whole entry): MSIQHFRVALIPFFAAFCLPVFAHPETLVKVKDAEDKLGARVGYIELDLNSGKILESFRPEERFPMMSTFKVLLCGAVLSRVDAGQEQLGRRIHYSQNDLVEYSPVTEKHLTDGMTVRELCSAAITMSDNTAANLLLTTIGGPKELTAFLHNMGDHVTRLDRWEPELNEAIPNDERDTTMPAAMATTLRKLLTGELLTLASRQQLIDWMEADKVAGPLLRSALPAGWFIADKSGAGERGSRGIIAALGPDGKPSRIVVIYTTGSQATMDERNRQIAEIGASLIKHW

[6] = cytotoxicity toward NIH3T3 fibroblasts, dose response, counter-screen, cell-based, ATP luminescence, mouse fibroblasts (AID 2010); format: functional;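 note: cells exposed to compound for about 90 hours before reading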
Protein RecA = target: T3, Protein RecA (Mycobacterium tuberculosis, UniProt P9WHJ3); assay: Fluorescence Cell-Free Homogeneous Dose Retest to Identify Inhibitors of RecA-Intein Splicing Activity. [Related pubchem assays (depositor defined):AID2097, AID2223, AID489010, AID492950]; format: functional
T3 sequence (P9WHJ3 whole entry): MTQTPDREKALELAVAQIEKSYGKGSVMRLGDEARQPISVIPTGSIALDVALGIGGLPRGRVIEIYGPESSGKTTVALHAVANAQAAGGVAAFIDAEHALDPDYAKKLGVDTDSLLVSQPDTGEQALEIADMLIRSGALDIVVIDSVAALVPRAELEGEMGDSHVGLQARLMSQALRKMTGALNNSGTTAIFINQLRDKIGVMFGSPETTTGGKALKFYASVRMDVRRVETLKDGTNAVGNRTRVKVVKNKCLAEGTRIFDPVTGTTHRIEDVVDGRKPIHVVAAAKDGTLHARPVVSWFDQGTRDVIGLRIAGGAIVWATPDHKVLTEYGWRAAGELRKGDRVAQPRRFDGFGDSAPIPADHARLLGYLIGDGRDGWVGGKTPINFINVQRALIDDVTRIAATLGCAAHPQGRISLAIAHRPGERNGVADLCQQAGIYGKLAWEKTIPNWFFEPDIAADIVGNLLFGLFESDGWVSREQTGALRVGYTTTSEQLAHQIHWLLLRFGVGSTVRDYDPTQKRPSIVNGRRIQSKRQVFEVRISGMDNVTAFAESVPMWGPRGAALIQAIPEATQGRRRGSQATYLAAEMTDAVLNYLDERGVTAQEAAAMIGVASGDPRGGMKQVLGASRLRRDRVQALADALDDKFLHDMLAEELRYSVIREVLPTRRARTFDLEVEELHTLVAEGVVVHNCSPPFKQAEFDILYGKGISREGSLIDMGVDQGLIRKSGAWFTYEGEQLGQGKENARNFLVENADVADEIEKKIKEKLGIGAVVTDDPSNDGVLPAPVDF

Polyadenylate-binding protein 1, sequence (P11940 whole entry): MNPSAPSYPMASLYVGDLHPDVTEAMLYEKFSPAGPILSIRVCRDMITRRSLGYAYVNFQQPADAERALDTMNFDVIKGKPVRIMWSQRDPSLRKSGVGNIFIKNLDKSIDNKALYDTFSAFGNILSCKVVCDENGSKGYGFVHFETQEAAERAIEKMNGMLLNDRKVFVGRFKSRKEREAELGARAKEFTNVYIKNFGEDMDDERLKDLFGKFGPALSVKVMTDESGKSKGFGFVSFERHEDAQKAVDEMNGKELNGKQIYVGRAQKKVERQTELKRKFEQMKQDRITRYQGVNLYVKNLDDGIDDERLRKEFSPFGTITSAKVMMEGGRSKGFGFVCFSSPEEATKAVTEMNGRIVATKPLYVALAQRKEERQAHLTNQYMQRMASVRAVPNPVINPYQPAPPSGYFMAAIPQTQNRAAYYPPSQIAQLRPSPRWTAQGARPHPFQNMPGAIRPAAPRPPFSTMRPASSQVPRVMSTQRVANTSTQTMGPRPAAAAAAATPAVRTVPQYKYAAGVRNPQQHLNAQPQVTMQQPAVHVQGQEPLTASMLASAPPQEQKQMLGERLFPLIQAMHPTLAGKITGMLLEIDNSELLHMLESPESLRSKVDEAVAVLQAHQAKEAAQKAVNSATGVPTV

For `O=S(=O)(O)c1cc(O)c2cc(Nc3ccccc3)ccc2c1`, the IC50 [1] was > 66 µM (inactive), the IC50 [2] was 0.335 µM (active) and the IC50 [3] was > 66.6 µM (inactive). For the same molecule, the IC50 [4] was 5.09 µM (active) and the IC50 [5] was 37.9 µM (active).
In the case of `O=[N+]([O-])c1c(Nc2ccccc2O)cc(Cl)c2nonc12`, the EC50 (Beta-galactosidase) is reported as > 31.5 µM (inactive), the IC50 (Beta Lactamase) is reported as 18.4 µM (inactive) and the EC50 [6] is reported as 3.68 µM (active). The EC50 (Protein RecA) was 1.21 µM (active).
